# Data as given in publication PMC12133300, “The C-terminal structure of the N^6-methyladenosine deaminase YerA and its role in deamination” (Biochemical Journal, 2025).
# Experiments:
# YerA (Bsu06560) [1] = target: T1, YerA (Bsu06560) (Bacillus subtilis, UniProt O34909); assay: thermal shift assay (SYPRO Orange); format: binding; details: apo-YerA (without metal reconstitution) 15 uM, 3 mM ligand
# T1 construct: full-length (Met1-Arg580), pET-28a(+), E. coli BL21(DE3), N-terminal His-tag cleaved by PreScission protease; monomer; assayed as apo or metal-reconstituted form
# T1 sequence (O34909 whole entry): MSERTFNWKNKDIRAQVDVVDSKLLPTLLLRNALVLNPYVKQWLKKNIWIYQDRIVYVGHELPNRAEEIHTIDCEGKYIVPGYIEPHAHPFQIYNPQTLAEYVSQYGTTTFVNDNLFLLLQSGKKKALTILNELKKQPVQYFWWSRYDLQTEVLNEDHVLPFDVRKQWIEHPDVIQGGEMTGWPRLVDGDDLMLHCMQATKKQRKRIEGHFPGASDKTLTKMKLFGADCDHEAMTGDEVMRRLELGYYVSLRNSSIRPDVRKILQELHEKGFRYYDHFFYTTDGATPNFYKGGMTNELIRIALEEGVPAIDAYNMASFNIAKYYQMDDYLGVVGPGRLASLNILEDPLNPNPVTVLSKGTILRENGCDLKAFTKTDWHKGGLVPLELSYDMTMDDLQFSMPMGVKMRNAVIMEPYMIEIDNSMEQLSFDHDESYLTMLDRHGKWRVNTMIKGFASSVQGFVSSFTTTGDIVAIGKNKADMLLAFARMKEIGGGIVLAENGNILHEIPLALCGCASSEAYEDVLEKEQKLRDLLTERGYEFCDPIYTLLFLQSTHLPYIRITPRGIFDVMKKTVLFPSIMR
# YerA (Bsu06560) [2] = target: T1, YerA (Bsu06560); assay: LC-Q-TOF-MS detection of inosine product; format: biochemical; details: metal-reconstituted holoenzyme, 5 h, 37 °C, 5 mM ligand; apo form without reconstitution inactive
smiles,measurement,setting,value
"CNc1ncnc2c1ncn2[C@@H]1O[C@H](CO)[C@@H](O)[C@H]1O [N^6-mAdo, N^6-methyladenosine]",Tm shift,YerA (Bsu06560) [1],3 °C
same,LC-Q-TOF-MS detection of inosine product,YerA (Bsu06560) [2],YerA deaminated the favored substrate N^6-mAdo to Ino after a 5-h reaction
